In US20220064105A1, “CRYSTALLINE EDG-2 RECEPTOR ANTAGONIST AND METHODS OF MAKING” (Sanofi, priority 2020, published 2022):
In brackets after ≈: the same amount, converted by molar mass. Marks after values point to notes of the source that are not given here. One block for each compound: values may come before it.

Key:
[1] = Estimated hot solubility in solvents at elevated temperature (approximately solvent boiling point); assay type: physicochemical; conditions: thermodynamic from solid, read-out: Hot Solubility (est)
Protocol: Compound I was dissolved in a variety of solvents at elevated temperature (approximately at solvent boiling point) to provide solutions of Compound I with a maximum concentration of 15 mg/mL. The input material in these experiments was a mixture of polymorphic forms 1, 2, and 3.
When concentrations of Compound I was greater than 2 mg/mL, the solutions were filtered and evaporated at 25° C. to isolate the solid.

[2] = tested on: patients with diffuse cutaneous systemic sclerosis SSc (dcSSc); conditions: cited from earlier work
[3] = tested on: mouse model of skin fibrosis; conditions: cited from earlier work
[4] = Solubility of Compound I in solvents at room temperature (about 25° C.); assay type: physicochemical; conditions: thermodynamic from solid
Protocol: Compound I was dissolved in a variety of solvents at room temperature (about 25° C.) to provide solutions of Compound I with a maximum concentration of 10 mg/mL. The input material in these experiments was a mixture of polymorphic forms 1, 2, and 3.
The maximum concentration used in this set of experiments was 10 mg/mL. Solubility was highest in THF at >10 mg/mL. […] The solubility was estimated at less than 2 mg/mL for: 1-butanol, butyl acetate, hexane, ethanol, ethyl acetate, isobutyl alcohol, 1-pentanol, isopropanol, acetonitrile, dichloromethane, chloroform, and water.

[5] = Slurry stability study at room temperature (25° C.), 4 weeks, resulting form by FTIR; assay type: physicochemical; conditions: for Final form after slurry: 25° C., 4 weeks, FTIR
Protocol: Slurry stability Maturation studies were initially conducted for the purpose of identifying the most […] stable form at room temperature (25° C.).
In this set of experiments, both the individual forms and mixtures of forms were slurried in several solvents for 4 weeks, then filtered and analyzed to determine the resulting form. The first set of experiments included pure Form 1, Form 2, Form 3, and mixtures of these forms in equal amounts. The solvents included methanol, ethyl acetate, MEK, and methyl THF in order to investigate a range of solvent polarity. Additional experiments were conducted with a mixture of Form 1 and Form 4 in MEK and methanol.
Analysis was performed by FTIR due to ease of analysis for small quantities. It is interesting to note that the acid carbonyl is shifted to a different location for each polymorph. The results for the first set of experiments are listed below, comparing the starting form with the final form.

[6] = Slurry conversion studies at 40-70° C. with Forms 1 and 2; assay type: physicochemical
Protocol: Slurry conversation studies were also conducted at 40-70° C. with Forms 1 and 2 to determine a transition temperature between the forms. A mixture of Form 1 and Form 2 at a (1:1 ratio) was slurried at 40° C., 50° C., 60° C., and 70° C. in two different solvents at each temperature and then analyzed to determine the direction of transformation. At 40° C. and 50° C., Methanol and MEK were used. At 60° C. and 70° C. MEK and 1-Pentanol were used.

[7] = Physical stability of solid state forms at 80° C./75% RH, by FTIR; assay type: physicochemical; conditions: 1 week (7 days), open glass vials
Protocol: The physical stability of Forms 1, 2, and 3 was investigated at 80° C./75% RH in order to determine if interconversion was observed. The samples were examined by FTIR after stressing 1 week in open glass vials.

[8] = Solubility of polymorphs at pH 7.4 in phosphate buffer at 25° C.; assay type: physicochemical; conditions: pH 7.4 phosphate buffer; for Concentration (equilibrium solubility): 24 hr
Protocol: The solubility of the different polymorphs was determined at pH 7.4 in phosphate buffer at 25° C. Samples were analyzed as a function of time for each form to determine the equilibrium values. The residual solids from each sample were analyzed to verify that the form was unchanged during the experiment. The concentration (mg/mL) versus time data is listed below for each form: […]

[9] = Dynamic vapor sorption (DVS); assay type: physicochemical; conditions: 25° C.
Protocol: Moisture sorption/desorption isotherms are recorded on a DVS-1 from SURFACE MEASUREMENT SYSTEMS. Two cycles are run at 25° C., in which the Relative Humidity (RH) is stepped from 0 to 95% and back to 0%. The data is evaluated with the software DVSWin V. 2.15.

[10] = slurried in 1-pentanol at 60° C.
[11] = slurried in 1-pentanol at 70° C.

solubility ([1]; 40 °C, organic solvent or mixture, Dichloromethane (DCM)): < 4000 µg/mL
solubility ([1]; 56 °C, organic solvent or mixture, Acetone): > 10000 µg/mL
solubility ([1]; 61 °C, organic solvent or mixture, Chloroform): 4000 to 5000 µg/mL (≈ 8.98 to 11.2 mM)
solubility ([1]; 65 °C, organic solvent or mixture, Methanol): > 10000 µg/mL
solubility ([1]; 69 °C, organic solvent or mixture, Hexane): < 2000 µg/mL
solubility ([1]; 77 °C, organic solvent or mixture, Ethyl Acetate): 5000 to 10000 µg/mL (≈ 11.2 to 22.4 mM)
solubility ([1]; 78 °C, organic solvent or mixture, Ethanol): > 10000 µg/mL
solubility ([1]; 80 °C, organic solvent or mixture, Methyl Ethyl Ketone (MEK)): > 15000 µg/mL
solubility ([1]; 82 °C, organic solvent or mixture, 2-Propanol): 7000 to 10000 µg/mL (≈ 15.7 to 22.4 mM)
solubility ([1]; 82 °C, organic solvent or mixture, Acetonitrile): 7000 to 10000 µg/mL (≈ 15.7 to 22.4 mM)
solubility ([1]; 100 °C, Water): < 2000 µg/mL
solubility ([1]; 108 °C, organic solvent or mixture, Isobutyl Alcohol): > 10000 µg/mL
solubility ([1]; 118 °C, organic solvent or mixture, 1-Butanol): > 10000 µg/mL
solubility ([1]; 126 °C, organic solvent or mixture, Butyl Acetate): ~10000 µg/mL (≈ 22.4 mM)
solubility ([1]; 138 °C, organic solvent or mixture, 1-Pentanol): > 10000 µg/mL
solubility ([4]; organic solvent or mixture, 1-butanol, read-out: Solubility (estimated)): < 2000 µg/mL
solubility ([4]; organic solvent or mixture, 1-pentanol, read-out: Solubility (estimated)): < 2000 µg/mL
solubility ([4]; organic solvent or mixture, MEK, read-out: Solubility): 4000 to 6000 µg/mL (≈ 8.98 to 13.5 mM)
solubility ([4]; organic solvent or mixture, THF, read-out: Solubility): > 10000 µg/mL
solubility ([4]; organic solvent or mixture, acetone, read-out: Solubility): 4000 to 6000 µg/mL (≈ 8.98 to 13.5 mM)
solubility ([4]; organic solvent or mixture, acetonitrile, read-out: Solubility (estimated)): < 2000 µg/mL
solubility ([4]; organic solvent or mixture, butyl acetate, read-out: Solubility (estimated)): < 2000 µg/mL
solubility ([4]; organic solvent or mixture, chloroform, read-out: Solubility (estimated)): < 2000 µg/mL
solubility ([4]; organic solvent or mixture, dichloromethane, read-out: Solubility (estimated)): < 2000 µg/mL
solubility ([4]; organic solvent or mixture, ethanol, read-out: Solubility (estimated)): < 2000 µg/mL
solubility ([4]; organic solvent or mixture, ethyl acetate, read-out: Solubility (estimated)): < 2000 µg/mL
solubility ([4]; organic solvent or mixture, hexane, read-out: Solubility (estimated)): < 2000 µg/mL
solubility ([4]; organic solvent or mixture, isobutyl alcohol, read-out: Solubility (estimated)): < 2000 µg/mL
solubility ([4]; organic solvent or mixture, isopropanol, read-out: Solubility (estimated)): < 2000 µg/mL
solubility ([4]; organic solvent or mixture, methanol, read-out: Solubility): 2000 to 3000 µg/mL (≈ 4.49 to 6.73 mM)
solubility ([4]; water, read-out: Solubility (estimated)): < 2000 µg/mL
SMILES: COc1ccc(C(=O)NC2(C(=O)O)Cc3ccccc3C2)cc1OCCc1cccc(C)c1 [Compound I, 2-(4-methoxy-3-(3-methylphenethoxy)benzamido)-2,3-dihydro-1H-indene-2-carboxylic acid]
Outcome measures [2]: improved outcome measures
Target engagement [2]: demonstrated target engagement
Tolerability [2]: well tolerated
Collagen content [3]: reduced collagen content
Dermal thickening [3]: reversed dermal thickening
Myofibroblast differentiation [3]: significantly inhibited myofibroblast differentiation

Relative stability of the crystal forms ([5]; room temperature (25° C.), from slurry data set): most stable form
Final form after slurry ([5]; slurried in MEK): Form 1
Final form after slurry ([5]; slurried in ethyl acetate): Form 1
Final form after slurry ([5]; slurried in methanol): Form 1
Final form after slurry ([5]; slurried in methyl THF): Form 1
Resulting form after slurry [6, 10]: converts to crystalline Form 2
Resulting form after slurry [6, 11]: converts to crystalline Form 2
Resulting form after slurry ([6]; slurried in MEK at 60° C.): converts to crystalline Form 2
Resulting form after slurry ([6]; slurried in MEK at 70° C.): converts to crystalline Form 2
Change in FTIR spectrum after storage [7]: unchanged FTIR
Concentration (solubility) ([8]; 1 hr): 42 µg/mL
Concentration (solubility) ([8]; 2 hr): 41 µg/mL
Concentration (solubility) ([8]; 3 hr): 42 µg/mL
Concentration (equilibrium solubility) [8]: 0.042 mg/mL
Reversible water uptake [9]: less than 1%
SMILES: COc1ccc(C(=O)NC2(C(=O)O)Cc3ccccc3C2)cc1OCCc1cccc(C)c1 [Form 1, 2-(4-methoxy-3-(3-methylphenethoxy)benzamido)-2,3-dihydro-1H-indene-2-carboxylic acid]

Final form after slurry ([5]; slurried in MEK): converts to crystalline Form 1
Final form after slurry ([5]; slurried in ethyl acetate): Form 2
Final form after slurry ([5]; slurried in methanol): Form 2
Final form after slurry ([5]; slurried in methyl THF): Form 2
Resulting form after slurry ([6]; slurried in MEK at 40° C.): converts to crystalline Form 1
Resulting form after slurry ([6]; slurried in MEK at 50° C.): converts to crystalline Form 1
Resulting form after slurry ([6]; slurried in methanol at 40° C.): converts to crystalline Form 1
Resulting form after slurry ([6]; slurried in methanol at 50° C.): converts to crystalline Form 1
Change in FTIR spectrum after storage [7]: unchanged FTIR
24 hour solubility greater than Form 1 ([8]; 24 hours): more than 30%
Concentration (solubility) ([8]; 1 hr): 34 µg/mL
Concentration (solubility) ([8]; 2 hr): 39 µg/mL
Concentration (solubility) ([8]; 3 hr): 43 µg/mL
Concentration (equilibrium solubility) [8]: 0.057* mg/mL
SMILES: COc1ccc(C(=O)NC2(C(=O)O)Cc3ccccc3C2)cc1OCCc1cccc(C)c1 [Form 2, 2-(4-methoxy-3-(3-methylphenethoxy)benzamido)-2,3-dihydro-1H-indene-2-carboxylic acid]

Final form after slurry ([5]; slurried in MEK): converts to crystalline Form 1
Final form after slurry ([5]; slurried in ethyl acetate): converts to crystalline Form 1
Final form after slurry ([5]; slurried in methanol): converts to crystalline Form 1
Final form after slurry ([5]; slurried in methyl THF): converts to crystalline Form 1
Change in FTIR spectrum after storage [7]: unchanged FTIR
Equilibrium solubility relative to Form 1 ([8]; 24 hours): more than double
Concentration (solubility) ([8]; 1 hr): 83 µg/mL
Concentration (solubility) ([8]; 2 hr): 93 µg/mL
Concentration (solubility) ([8]; 3 hr): 95 µg/mL
Concentration (equilibrium solubility) [8]: 0.097 mg/mL
SMILES: COc1ccc(C(=O)NC2(C(=O)O)Cc3ccccc3C2)cc1OCCc1cccc(C)c1 [Form 3, 2-(4-methoxy-3-(3-methylphenethoxy)benzamido)-2,3-dihydro-1H-indene-2-carboxylic acid]

Equilibrium solubility relative to Form 1 ([8]; 24 hours): more than double
Concentration (solubility) ([8]; 1 hr): 79 µg/mL
Concentration (solubility) ([8]; 2 hr): 89 µg/mL
Concentration (solubility) ([8]; 3 hr): 105 µg/mL
Concentration (equilibrium solubility) [8]: 0.102 mg/mL
SMILES: COc1ccc(C(=O)NC2(C(=O)O)Cc3ccccc3C2)cc1OCCc1cccc(C)c1 [Form 4, 2-(4-methoxy-3-(3-methylphenethoxy)benzamido)-2,3-dihydro-1H-indene-2-carboxylic acid]

Final form after slurry ([5]; slurried in MEK): Form 1
Final form after slurry ([5]; slurried in methanol): Form 1
Final form after slurry ([5]; slurried in methyl THF): Form 1
SMILES: COc1ccc(C(=O)NC2(C(=O)O)Cc3ccccc3C2)cc1OCCc1cccc(C)c1 [Forms 1, 2, 3]

Resulting form after slurry [6, 10]: Form 2
Resulting form after slurry [6, 11]: Form 2
Resulting form after slurry ([6]; slurried in MEK at 40° C.): Form 1
Resulting form after slurry ([6]; slurried in MEK at 50° C.): Form 1
Resulting form after slurry ([6]; slurried in MEK at 60° C.): Form 2
Resulting form after slurry ([6]; slurried in MEK at 70° C.): Form 2
Resulting form after slurry ([6]; slurried in methanol at 40° C.): Form 1
Resulting form after slurry ([6]; slurried in methanol at 50° C.): Form 1
SMILES: COc1ccc(C(=O)NC2(C(=O)O)Cc3ccccc3C2)cc1OCCc1cccc(C)c1 [mixture of Form 1 and Form 2]

Final form after slurry ([5]; slurried in MEK): convert to Form 1
Final form after slurry ([5]; slurried in methanol): convert to Form 1
SMILES: COc1ccc(C(=O)NC2(C(=O)O)Cc3ccccc3C2)cc1OCCc1cccc(C)c1 [mixtures of Form 4 and Form 1]
